Laboratory results: patent US20240009203A1, “COMPOSITIONS AND METHODS FOR TREATING ALZHEIMER'S DISEASE” (Cedars-Sinai Medical Center, priority 2020, published 2024)

Key:
VGF = VGF expression in hippocampus; format: in vivo; conditions: dentate gyrus and other hippocampal regions, 18-mo-old AD-Tg mice, single ETP69 injection (FIG. 22)
Description: (§1) Expression of VGF, BDNF, and NCAM was analyzed in 18-month AD+ mice following a single ETP69 injection. Representative images are depicted in FIG. 22.

[1] = test system: cerebral macrophages, microglia, and astrocytes; test: Effects on cerebral inflammatory cells (FIG. 21A-21L); format: in vivo; conditions: AD+ mice (FIG. 21A-21L)
Description: These phagocytic inflammatory cells may be involved in immune activation and clearing toxic Aβ. Restoring a young phenotype may explain reduced neuroinflammation and Aβ plaques in the ETP69 treated AD+ mice.

BDNF pathway = test: Ingenuity pathway analysis of proteome data, BDNF pathway; design: species or system mice; conditions: FIG. 19B, p<0.0001
Description: (§2) FIGS. 19A, 19B, and 20 include global proteome data from a mass spectrometry analysis. […] Some of these proteins, such as HPX, may be involved in anti-oxidative-stress or anti-inflammatory pathways.

[2] = humans; cited from earlier work
dendritic spines = test: Golgi-Cox staining of brain sections (dendritic spines); format: in vivo, mice
Description: (§3) Wildtype and ADtg mice (18 months, males and females) were treated with ETP69 or vehicle (DMSO-saline) to test the effects of ETP69 in improving cognition in a mouse model of Alzheimer's disease. On day 1, mice were treated with an injection of 10 mg/kg ETP69 of vehicle. Then starting on day 2, mice were tested in various behavioral tests, including Y-maze, visual test alternation, Open Field-Barnes Maze, and/or fear conditioning. On either day 4 or day 19 mice were sacrificed, and tissues analyzed for histone trimethylation levels, A-beta levels, immunohistochemistry (GFAP, IGF1), Spine count (Golgi-Cox staining), —Neurotrophic support and synaptic markers.
[…] which bind to proteins in the neuron are randomly formed during the impregnation, then transformed to black mercuric sulfide deposits upon alkali treatment (Ramón-Moliner, 1970; Špaček, 1989; Rosoklija et al., 2014). The architecture of the impregnated neuron, including cell somas, axons, dendrites and spines, could be easily visualized. It is expected that qualitative observations by these measures of brains from ADtg mice treated with ETP69 will show higher spine density as compared to brains of DMSO-injected control ADtg mice. FIG. 7A-7D include Golgi-Cox stain images of whole neurons and their dendritic projections.
The right brain hemispheres of 18 month old mice were stained with the Golgi-Cox method to detect the cytoarchitecture and morphology of neurons. FIG. 13A depicts representative images of the cingulate cortex of mice administered DMSO or ETP69 and FIG. 13B depicts a representative image of the hippocampal area of a mouse treated with ETP69.

ADtg mice [3] = test: Visual X maze (visual stimuli X-maze), color mode; format: in vivo
Description: as §3
The results of the Koronyo's Visual X Maze (color) indicate visual-cognitive memory and learning.
(§4) The effects of single and repeated ETP69 injections in mice were tested. The experimental timeline is depicted in FIG. 8. Three parallel injection conditions were tested: a single ETP69 condition, a boosted ETP69 injection, and repeated ETP69 injections, as depicted in Table 2. The single injection mice received one injection of ETP69 or DMSO at Day 0. The mice that received a boosted injection received one injection of ETP69 or DMSO at day 0 and one injection at day 9. The mice that received repeated injections received 11 injections of ETP69 or DMSO at day 0 or day 9. Both wildtype and AD model (APP/PS1-transgenic) mice were tested.
(§5) FIG. 10A-10D depicts the results of the mice on the color mode of the visual stimuli X-maze test. […] FIG. 10E-10F depict the results of the contrast mode of the visual stimuli X-maze test.
(§6) The effects of ETP69 injections in 14 month old mice was tested. Wildtype mice were divided into 2 treatment groups, mice that received an ETP69 injection (n=10) and mice that received a DMSO injection (N=10). AD+ mice were divided into 2 treatment groups, mice that received an ETP69 injection (n=8) and mice that received a DMSO injection (N=7). The experimental protocol is depicted in FIG. 15.
Mice were tested for visual-cognitive memory and learning using a visual X maze.
(§7) 18 month old wildtype and AD+ mice were administered an oral dose of 50 mg/kg ETP69 or oraB once a day for 4 weeks. The experimental protocol is depicted in FIG. 23.
On day 1, the mice were tested in the open field test as depicted in FIG. 24A. Rearing and total locomotor activity were measured in mice administered oraB and ETP69 (FIG. 24B-24G). On day 2, mice were tested in the color visual-stimuli X-maze. […] On day 3, mice were tested in the contrast visual-stimuli X-maze. Results are depicted in FIG. 26A-26E.

GFAP = test: GFAP+ astrogliosis (immunohistochemistry, western blot); format: in vivo, mice
Description: (§8) 18 month old AD+ mice brains were stained for neuronal H3K9me3 and DAPI. FIG. 14A is a representative image of the H3K9me3 signal across cortical layers. FIG. 14B is a representative image comparing ETP69 treated and DMSO control brains. […] FIG. 14D depicts immunohistochemistry of 6E10+ amyloid-beta plaques and GFAP+ astrogliosis in coronal sections of AD+ mice treated with ETP69 or DMSO.

BDNF = BDNF expression in hippocampus; format: in vivo; conditions: dentate gyrus and other hippocampal regions, 18-mo-old AD-Tg mice, single ETP69 injection (FIG. 22)
Description: as §1

ADtg mice [4] = test: Y-maze test; format: in vivo
[5] = test system: 6E10+ amyloid-beta plaques; test: Immunohistochemistry of 6E10+ amyloid-beta plaques; format: in vivo, mice
Description: FIG. 14A is a representative image of the H3K9me3 signal across cortical layers. FIG. 14B is a representative image comparing ETP69 treated and DMSO control brains. […] FIG. 14D depicts immunohistochemistry of 6E10+ amyloid-beta plaques and GFAP+ astrogliosis in coronal sections of AD+ mice treated with ETP69 or DMSO.

[6] = test system: proteins related to learning, cognition, conditioning, anxiety; test: Ingenuity analysis of behavioral pathways; design: species or system mice; conditions: FIG. 20
Description: as §2

AD+ mice = test: Visual stimuli X-maze, contrast mode; format: in vivo; conditions: 18 mo, i.p. 10 mg/kg, contrast mode (FIG. 10E-10F)
Description: as §4, §5

global proteome = test: Global proteome mass spectrometry analysis of brains; format: in vivo, mice
Description: Overall, the experiments in these examples from multiple cohorts of 14- and 18-month-old murine models of AD (AD+ mice) and age/gender-matched control mice provide support that by inhibiting the enzyme SUV39H1 that regulates H3K9me3 via ETP69 compound (AKA NT1721), the chromatin state of subjects may be altered, and memory and synaptic plasticity may be restored in aging and AD brains. The therapeutic usefulness of ETP69 has been shown in the experiments described in these examples, in both aged WT mice and the well-established transgenic mouse models of AD (APPSWE/PS1ΔE9, AD+ mice), following a single (S), a boost (B), or once a week repeated (R) i.p. injections of ETP69. […] Additionally, in investigation of whole proteome profiles by mass spectrometry identified some mechanisms of action for ETP69 in the aged WT and AD+ mice.
as §2

ADtg mice [7] = test: Open Field-Barnes Maze test; format: in vivo
Description: as §3
The results of the Open Field-Barnes Maze test indicate hippocampal-based spatial learning and memory.
as §4
The results of the Open Field Barnes Maze test indicate hippocampal-based spatial memory and learned. […] A comparison of results of single (S), boost (B) and repeated (R) injections is depicted in FIG. 11D-11H.
as §7
On days 4-7 mice were tested on the training phase of the Barnes Maze (FIG. 27A). On day 10, mice were tested on the retention phase. On days 11-12, mice were tested on the reversal phase. Results are depicted in FIG. 27B-27E.

Iba1 = Iba1 immunohistochemistry; format: in vivo; conditions: 14 month old AD+ mice, compared to untreated AD+ mice (FIG. 18E)
H3K9me3 = H3K9me3 brain staining and quantification; format: in vivo, mice
Description: as §8

ADtg mice [8] = test: Fear conditioning test; format: in vivo
Description: as §3
The results of the fear conditioning test indicate spatial memory.
as §4, §6
The fear conditioning test was used to indicate spatial memory.

[9] = cingulate cortex and hippocampus, 18 month old mice (FIG. 13C-13D)
[10] = AD+ mice, 18 mo, i.p. 10 mg/kg, color mode (FIG. 10A-10D)
[11] = ADtg mice, 18 months, injection of 10 mg/kg, compared with vehicle treated mice (FIG. 4A-4J)
[12] = ADtg mice, 18 months, injection of 10 mg/kg, compared with vehicle treated mice (FIG. 5A-5C)

CN1C(=O)[C@@]23C[C@](C)(C#N)[C@H](c4ccc5c(c4)OCO5)N2C(=O)[C@]1(C)SS3 (racemic) [ETP69, Rac-(3S,6S,7S,8aS)-6-(benzo[d][1,3]dioxol-5-yl)-2,3,7-trimethyl-1,4-dioxohexahydro-6H-3,8a-epidithiopyrrolo[1,2-a]pyrazine-7-carbonitrile]
VGF expression (VGF): Marked increases | effects on cerebral macrophages, microglia, and astrocytes [1]: dramatic effects | BDNF pathway activation Z-score (BDNF pathway): 2.359 | safety and tolerability [2]: generally safe and tolerable | association of spine preservation with errors in the Barnes maze test (dendritic spines; 18 month old mice, correlation (FIG. 13G)): reduced errors | ratio of thin spines to all spines (dendritic spines; AD+ mice, 18 month, compared to AD+ mice administered DMSO alone (FIG. 13E-13F)): significant increase | dendritic spines (dendritic spines; [9]): increase | thin (immature) spines (dendritic spines; [9]): increase | alternation (ADtg mice [3]; 14 month old AD+ mice, ETP69 injection, compared to untreated mice, mode not stated (FIG. 16A-16D)): improvements | bidirectional movement (ADtg mice [3]; [10]): significant increase | percent alternation (ADtg mice [3]; [10]): significant increase | color bidirectional (ADtg mice [3]; [11]): improvements | percent spontaneous alternation (ADtg mice [3]; [11]): improvements | reversing cognitive dysfunction (ADtg mice [3]; old mice (18 month), oral 50 mg/kg in oraB once a day for 4 weeks, color visual-stimuli X-maze (FIG. 25A-25E)): beneficial effects | GFAP (GFAP; 14 month old AD+ mice, compared to untreated AD+ mice (FIG. 18D)): decrease | decrease of GFAP irradiance (GFAP; 18 month old AD+ mice, cingulate cortex (FIG. 14F)): 58% | BDNF expression (BDNF): Marked increases | percent alternation (ADtg mice [4]; AD+ mice, 18 mo, i.p. 10 mg/kg, vs AD+ DMSO (FIG. 9B)): significant increase | percent spontaneous alternation (ADtg mice [4]; ADtg mice, 18 months, injection of 10 mg/kg ETP69, compared with vehicle treated mice (FIG. 3A-3B)): improvement | number of total entries (ADtg mice [4]; both wildtype and AD+ mice, 18 mo, i.p. 10 mg/kg in DMSO, single/boost/repeated (FIG. 9A), indicates decreased locomotor activity): decreased | 6E10 ([5]; 14 month old AD+ mice, compared to untreated AD+ mice (FIG. 18C)): decrease | decrease in the amount of 6E10 amyloid plaques ([5]; brains of 18 month old AD+ mice (FIG. 14E)): 42% | proteins related to conditioning, anxiety, and other behaviors [6]: inhibition | proteins related to learning and cognition [6]: activation | percent alternation (AD+ mice): significant increase | proteins upregulated, AD+ mice treated with ETP69 compared to untreated AD+ mice (global proteome; brains, FIG. 19A): VAV3, CORO2A and HPX | most up-regulated proteins following ETP69 administration (global proteome; whole proteome profiles by mass spectrometry, aged WT and AD+ mice): VGF and HP/HPX | memory retention (ADtg mice [7]; AD+ mice, 18 mo, i.p. 10 mg/kg, compared to AD+ mice treated with DMSO (FIG. 11A-11C)): improvement | incorrect entries (ADtg mice [7]; [12]): fewer | latency (ADtg mice [7]; [12]): reduced | memory retention (ADtg mice [7]; [12]): improvement | reversal of cognitive deficits (ADtg mice [7]; old AD-model mice (18 month), oral 50 mg/kg once a day for 4 weeks, Barnes Maze (FIG. 27B-27E)): significant reversal | Iba1 (Iba1): decrease | H3K9me3 (H3K9me3; 14 month old AD+ mice, compared to untreated AD+ mice (FIG. 18B)): decrease | H3K9me3 staining (H3K9me3; 18 month old AD+ mice, cortex and hippocampus (FIG. 14C)): significant decrease | freezing time (ADtg mice [8]; 14 month old AD+ mice, ETP69 injection (FIG. 17A-17B)): increase | freezing time (ADtg mice [8]; AD+ mice, 18 mo, i.p. 10 mg/kg (FIG. 12)): increased | freezing time (ADtg mice [8]; ADtg mice, 18 months, injection of 10 mg/kg (FIG. 6A-6B)): increased
